This note sets out measurements from the OligoGym collection.

This series deals with HSD17B13. The settings on record: ASO, HepaRG.

Values joined by “and” are separate entries in the source; they are usually repeats but may differ in a detail not shown here. Equal values may be shown once. After the bases stand the sugars from the 5' end (letter, count) and the backbone: PS all phosphorothioate, else s phosphorothioate and o phosphodiester by linkage. Methylation of C is not given here. e = 2'-O-(2-methoxyethyl) (MOE); k = constrained ethyl (cEt); d = 2'-deoxy (DNA); m = 2'-O-methyl

CAGGGTGGTAACGGTG (sugars k3 d10 k3, PS): for the setting “1 µM”, the target mRNA inhibition was determined as 55%.

Turning to TTCCCAACGCAACAGT (sugars k3 d10 k3, PS), for the setting “1 µM”, the target mRNA inhibition came to 60%.

In turn, TAGCAGCTAAAATCCA (sugars k3 d10 k3, PS) had a target mRNA inhibition (1 µM) of 66%.

In turn, CAAACATGGATGTTAG (sugars k3 d10 k3, PS) came in with a target mRNA inhibition (1 µM) of 49%.

In the case of GTTCAAATTGGATGCA (sugars k3 d10 k3, PS), for the setting “1 µM”, the target mRNA inhibition amounted to 68%.

In the case of “TCTTGACAATGGTTGA (sugars k3 d9 k3 e1, PS)”, the target mRNA inhibition (1 µM) was 61%.

As to TGAGAATTTAAGAGGG (sugars k3 d10 k3, PS), the target mRNA inhibition (1 µM) was 25%. On the same count and under the same terms, then AGCTAACTCAGGCTGT (sugars k3 d10 k3, PS), with 14%; and TGAACATACATTGTTG (sugars k3 d10 k3, PS), with 29%.

AGAGTTGCACCGTTTT (sugars k3 d10 k3, PS) displayed a target mRNA inhibition (0.02 µM) of 5%; a target mRNA inhibition (0.078 µM) of 11%; a target mRNA inhibition (0.313 µM) of 40%; a target mRNA inhibition (1 µM) of 76%; a target mRNA inhibition (1.25 µM) of 81%; a target mRNA inhibition (5 µM) of 87%.

Regarding AGTGCCAAACCAATGT (sugars k3 d10 k3, PS), the target mRNA inhibition (1 µM) is 62%. The same measure, in the same setting: to CTAACTAACCTGACAC (sugars k3 d10 k3, PS) belongs 23%; to ACGACTTCATCTGTCT (sugars k3 d10 k3, PS), 8%; to ATTACAGCCTTAGAGT (sugars k3 d10 k3, PS), 56%. On the same count and under the same terms, to CCCGAATTATTTCTTG (sugars k3 d10 k3, PS) belongs 34%; to TGATCTTAAGGATCAT (sugars k3 d10 k3, PS), 0%; to TTCTACAGAAGACTAC (sugars k3 d10 k3, PS), 40%. The same measure, in the same setting: to ACGACTCCAAGTAGGA (sugars k3 d10 k3, PS) belongs 24%. For the sequence TTATGAAGTTAGTATA (sugars k3 d10 k3, PS), for the setting “1 µM”, the target mRNA inhibition amounted to 31%. Still for that read-out and setting: to CGCGAGATGATGTTGC (sugars k3 d10 k3, PS) belongs 53%. The same measure, in the same setting: to TATACCTGTTGCCTAG (sugars k3 d10 k3, PS) belongs 11%; to TTATTGGTAAGTATTC (sugars k3 d10 k3, PS), 17%; to GGAAAGGATATTTGGC (sugars k3 d10 k3, PS), 58%.

For the setting “1 µM”, TAGGCTTAGTGTAGAA (sugars k3 d10 k3, PS) returned a target mRNA inhibition of 38%. “TAGAATAGTCTTCAGC (sugars k3 d1 m1 d8 k3, PS)” had a target mRNA inhibition (1 µM) of 30%. With TAGTGCCAAACCAATG (sugars k3 d10 k3, PS), under “1 µM”, the target mRNA inhibition was 46% and 61%. Sequence “TAAACATCTCTGGGAC (sugars kkdddddddddkekek, PS)” gave a target mRNA inhibition (1 µM) of 39%.

As for CCAAACTTGCCCATAA (sugars k3 d10 k3, PS), under “1 µM”, the target mRNA inhibition was 45%. The same measure, in the same setting: then AAGTATTCCATCTATC (sugars k3 d10 k3, PS), with 52%; and TCTTATCCACACCTTC (sugars k3 d10 k3, PS), with 31%. With “GTTTTTAAGAGGCATG (sugars k3 d9 k3 e1, PS)”, the target mRNA inhibition by setting is: (0.02 µM) 12%; (0.078 µM) 17%; (0.313 µM) 41%; (1 µM) 78%; (1.25 µM) 64%; (5 µM) 82%. “AGTTATTAGAAGTCAG (sugars kkdddddddddkekek, PS)”: the target mRNA inhibition (1 µM) turned out to be 42%. Regarding “ATGTGAAGAGCTGGTA (sugars k3 d1 m1 d8 k3, PS)”, under “1 µM”, the target mRNA inhibition amounted to 26%.

Sequence “ATGTAATAGCCAGTAC (sugars k3 d1 m1 d8 k3, PS)” yielded a target mRNA inhibition (1 µM) of 42%. For the sequence AAAAAGCTTATCGAGT (sugars k3 d10 k3, PS), where the note is “1 µM”, the target mRNA inhibition was found to be 8%.

AGTAATTGCATCTGCT (sugars k3 d10 k3, PS) came in with a target mRNA inhibition (1 µM) of 42%. The same measure, in the same setting: then CAGTATCCCCTCAAAT (sugars k3 d10 k3, PS), with 53%. As to “TCTCTTGACAATGGTT (sugars k3 d9 k3 e1, PS)”, the target mRNA inhibition came to 0% (0.02 µM); 23% (0.078 µM); 47% (0.313 µM); 84% (1 µM); 66% (1.25 µM); 79% (5 µM). In the case of TTGCAAGTTTATCAGT (sugars k3 d10 k3, PS), the target mRNA inhibition (1 µM) stood at 66%. In the case of CCTTCTGGTTCAGTCC (sugars k3 d10 k3, PS), the target mRNA inhibition by setting is: (0.02 µM) 9%; (0.078 µM) 20%; (0.313 µM) 39%; (1 µM) 72%; (1.25 µM) 68%; (5 µM) 89%. For the sequence GAGATTTGAAGGTTAG (sugars k3 d10 k3, PS), the target mRNA inhibition by setting is: (0.02 µM) 0%; (0.078 µM) 26%; (0.313 µM) 54%; (1 µM) 82%; (1.25 µM) 77%; (5 µM) 92%.

For TGGAATGCTACTTGAA (sugars k3 d10 k3, PS), the target mRNA inhibition is 0% (0.02 µM); 22% (0.078 µM); 55% (0.313 µM); 85% (1 µM); 71% (1.25 µM); 90% (5 µM). With GAGGAGTTAGGGAGCC (sugars k3 d10 k3, PS), the target mRNA inhibition (1 µM) is 36%. On to AGCATTCATCAGATGT (sugars k3 d10 k3, PS), for which the target mRNA inhibition reads like this: (0.02 µM) 0%; (0.078 µM) 12%; (0.313 µM) 40%; (1 µM) 83%; (1.25 µM) 65%; (5 µM) 56%. As to CGTTTACTCACTTCTG (sugars k3 d10 k3, PS), for the setting “1 µM”, the target mRNA inhibition came out at 21%. For the sequence “TAGTCTTCAGCAAAGT (sugars k3 d9 k3 e1, PS)”, where the note is “1 µM”, the target mRNA inhibition amounted to 36%. TGCTATAGTAATCACA (sugars k3 d10 k3, PS) yielded a target mRNA inhibition (1 µM) of 65%.

As to GGCCTGAAGTTCTGAT (sugars k3 d10 k3, PS), where the note is “1 µM”, the target mRNA inhibition turned out to be 0%.

Sequence CTCTATTGGTGTTTTA (sugars k3 d10 k3, PS) gave a target mRNA inhibition (1 µM) of 32%. Where the note is “1 µM”, “TTAAGATACCCAGGTT (sugars kkdddddddddkekek, PS)” gave a target mRNA inhibition of 48%. The same measure, in the same setting: to CTTATGTAATAGCCAG (sugars k3 d10 k3, PS) belongs 74%; to TTAAGGATCATTGCAG (sugars k3 d10 k3, PS), 14%. As for TGTAGTGGGAGTCGGA (sugars k3 d10 k3, PS), for the setting “1 µM”, the target mRNA inhibition was 62%. Same read-out and setting: then ACTTACCAATATGGGA (sugars k3 d10 k3, PS), with 0%. As for TGATTAATCTTGATGC (sugars k3 d10 k3, PS), for the setting “1 µM”, the target mRNA inhibition was 15%.

On to TTTGAGCCTAAAATTG (sugars k3 d10 k3, PS), for which the target mRNA inhibition (1 µM) was found to be 26%. Same read-out and setting: then TCCTTATACTGAAGGC (sugars k3 d10 k3, PS), with 22%; and TAAGATACCCAGGTTG (sugars k3 d10 k3, PS), with 39%. On the same count and under the same terms, then TGAAGATTAGTTAACC (sugars k3 d10 k3, PS), with 21%; and TTGCAGAAATTCACCT (sugars k3 d10 k3, PS), with 36%; and GTAAAGTTTGTTAGAG (sugars k3 d10 k3, PS), with 54%. Under “1 µM”, GAAGAAGGACTTTCAT (sugars k3 d10 k3, PS) gave a target mRNA inhibition of 40%.

On to “TGATATTCTGTGGCAT (sugars k3 d9 k3 e1, PS)”, for which the target mRNA inhibition was 8% (0.02 µM); 23% (0.078 µM); 40% (0.313 µM); 74% (1 µM); 67% (1.25 µM); 90% (5 µM). As for “TAGCTGTGCACTCATT (sugars k3 d9 k3 e1, PS)”, the target mRNA inhibition by setting is: (0.02 µM) 3%; (0.078 µM) 0%; (0.313 µM) 8%; (1 µM) 66%; (1.25 µM) 57%; (5 µM) 76%. For the sequence ACCAAGAGGGTTTTTA (sugars k3 d10 k3, PS), where the note is “1 µM”, the target mRNA inhibition was found to be 7%. On the same count and under the same terms, then “CTCTGGGACCAAGGAT (sugars kkdddddddddkekek, PS)”, with 39%. Same read-out and setting: to ATGTGAAGAGCTGGTA (sugars k3 d10 k3, PS) belongs 42%.

As to CAACTATGTAATAGGC (sugars k3 d10 k3, PS), the target mRNA inhibition reads like this: (0.02 µM) 1%; (0.078 µM) 17%; (0.313 µM) 42%; (1 µM) 79%; (1.25 µM) 73%; (5 µM) 92%. Consider CAGGTTGAGATAAAGC (sugars k3 d10 k3, PS), for which, where the note is “1 µM”, the target mRNA inhibition came out at 49%. Turning to CCCAACGCAACAGTTT (sugars k3 d10 k3, PS), the target mRNA inhibition is, setting by setting: (0.02 µM) 4%; (0.078 µM) 26%; (0.313 µM) 54%; (1 µM) 66%; (1.25 µM) 78%; (5 µM) 92%. In turn, “TATGAAGTTAGTATAG (sugars k3 d1 m1 d8 k3, PS)” displayed a target mRNA inhibition (1 µM) of 27%.

In turn, “TGATACACCAATGCAG (sugars kkdddddddddkekek, PS)” displayed a target mRNA inhibition (1 µM) of 62%. “TGCAGCATTGATTCGA (sugars k3 d1 m1 d8 k3, PS)” had a target mRNA inhibition (1 µM) of 65%.
